This note sets out measurements from ChEMBL document CHEMBL4196108, “5-Aroylindoles Act as Selective Histone Deacetylase 6 Inhibitors Ameliorating Alzheimer's Disease Phenotypes” (J Med Chem, 2018).

The structures appear in SMILES notation. Some results are limits rather than exact numbers.

Broadly, the IC50 is the concentration that inhibits the measured activity by half. Higher therefore signals weaker potency.

One assay has as its target Histone deacetylase 3 (Homo sapiens, UniProt O15379).
The target of a further assay is Histone deacetylase 1 (Homo sapiens, UniProt Q13547). The assay can be described thus: Inhibition of human HDAC1 using RHKKAc peptide as substrate.
Chain of Histone deacetylase 1 (Q13547 whole entry): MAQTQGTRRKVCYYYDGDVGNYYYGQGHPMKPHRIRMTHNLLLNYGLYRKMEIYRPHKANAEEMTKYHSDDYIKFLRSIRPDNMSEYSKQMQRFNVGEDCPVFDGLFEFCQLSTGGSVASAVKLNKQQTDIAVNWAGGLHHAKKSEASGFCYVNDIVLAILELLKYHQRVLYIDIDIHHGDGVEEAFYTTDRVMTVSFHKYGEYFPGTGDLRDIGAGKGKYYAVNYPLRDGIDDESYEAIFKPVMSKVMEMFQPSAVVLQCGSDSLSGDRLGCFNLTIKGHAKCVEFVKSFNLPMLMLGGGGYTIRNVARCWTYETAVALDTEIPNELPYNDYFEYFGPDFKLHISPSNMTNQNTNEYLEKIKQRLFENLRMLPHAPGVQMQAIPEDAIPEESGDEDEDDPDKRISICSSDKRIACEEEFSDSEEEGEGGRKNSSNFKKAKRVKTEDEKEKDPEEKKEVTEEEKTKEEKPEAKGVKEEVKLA
The target of assay [1] is T1, Polyamine deacetylase HDAC10 (Homo sapiens, UniProt Q969S8).
T1 sequence (Q969S8 whole entry): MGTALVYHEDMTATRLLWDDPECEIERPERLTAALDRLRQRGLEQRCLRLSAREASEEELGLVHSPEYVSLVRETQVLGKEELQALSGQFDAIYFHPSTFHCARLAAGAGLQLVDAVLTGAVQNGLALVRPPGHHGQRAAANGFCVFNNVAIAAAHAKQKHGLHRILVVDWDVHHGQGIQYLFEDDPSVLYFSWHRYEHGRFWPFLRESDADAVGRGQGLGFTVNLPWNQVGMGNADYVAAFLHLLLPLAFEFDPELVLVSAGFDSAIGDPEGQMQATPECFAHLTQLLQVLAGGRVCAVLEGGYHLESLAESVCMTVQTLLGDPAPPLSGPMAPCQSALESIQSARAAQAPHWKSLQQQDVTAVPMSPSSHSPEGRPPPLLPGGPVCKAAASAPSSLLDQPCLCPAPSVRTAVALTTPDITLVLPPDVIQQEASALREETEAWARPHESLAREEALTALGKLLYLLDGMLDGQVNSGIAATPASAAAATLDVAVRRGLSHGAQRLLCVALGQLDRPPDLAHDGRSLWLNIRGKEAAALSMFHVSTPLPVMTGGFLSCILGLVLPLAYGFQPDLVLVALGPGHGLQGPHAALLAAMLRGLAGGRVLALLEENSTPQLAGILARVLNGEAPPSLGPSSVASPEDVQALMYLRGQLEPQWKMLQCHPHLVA
Nature of the assay: Inhibition of human HDAC10 using RHKKAc peptide as substrate.

For assay [2], the species on record is Homo sapiens. Nature of the assay: Selectivity index, ratio of IC50 for human HDAC2 to IC50 for human HDAC6.
For assay [3], the species on record is Homo sapiens. The assay can be described thus: Selectivity index, ratio of IC50 for human HDAC8 to IC50 for human HDAC6.
Assay [4] is filed under the species Homo sapiens. Nature of the assay: Selectivity index, ratio of IC50 for human HDAC3 to IC50 for human HDAC6.
The target of assay [5] is T2, Protein deacetylase HDAC6 (Homo sapiens, UniProt Q9UBN7).
T2 sequence (Q9UBN7 whole entry): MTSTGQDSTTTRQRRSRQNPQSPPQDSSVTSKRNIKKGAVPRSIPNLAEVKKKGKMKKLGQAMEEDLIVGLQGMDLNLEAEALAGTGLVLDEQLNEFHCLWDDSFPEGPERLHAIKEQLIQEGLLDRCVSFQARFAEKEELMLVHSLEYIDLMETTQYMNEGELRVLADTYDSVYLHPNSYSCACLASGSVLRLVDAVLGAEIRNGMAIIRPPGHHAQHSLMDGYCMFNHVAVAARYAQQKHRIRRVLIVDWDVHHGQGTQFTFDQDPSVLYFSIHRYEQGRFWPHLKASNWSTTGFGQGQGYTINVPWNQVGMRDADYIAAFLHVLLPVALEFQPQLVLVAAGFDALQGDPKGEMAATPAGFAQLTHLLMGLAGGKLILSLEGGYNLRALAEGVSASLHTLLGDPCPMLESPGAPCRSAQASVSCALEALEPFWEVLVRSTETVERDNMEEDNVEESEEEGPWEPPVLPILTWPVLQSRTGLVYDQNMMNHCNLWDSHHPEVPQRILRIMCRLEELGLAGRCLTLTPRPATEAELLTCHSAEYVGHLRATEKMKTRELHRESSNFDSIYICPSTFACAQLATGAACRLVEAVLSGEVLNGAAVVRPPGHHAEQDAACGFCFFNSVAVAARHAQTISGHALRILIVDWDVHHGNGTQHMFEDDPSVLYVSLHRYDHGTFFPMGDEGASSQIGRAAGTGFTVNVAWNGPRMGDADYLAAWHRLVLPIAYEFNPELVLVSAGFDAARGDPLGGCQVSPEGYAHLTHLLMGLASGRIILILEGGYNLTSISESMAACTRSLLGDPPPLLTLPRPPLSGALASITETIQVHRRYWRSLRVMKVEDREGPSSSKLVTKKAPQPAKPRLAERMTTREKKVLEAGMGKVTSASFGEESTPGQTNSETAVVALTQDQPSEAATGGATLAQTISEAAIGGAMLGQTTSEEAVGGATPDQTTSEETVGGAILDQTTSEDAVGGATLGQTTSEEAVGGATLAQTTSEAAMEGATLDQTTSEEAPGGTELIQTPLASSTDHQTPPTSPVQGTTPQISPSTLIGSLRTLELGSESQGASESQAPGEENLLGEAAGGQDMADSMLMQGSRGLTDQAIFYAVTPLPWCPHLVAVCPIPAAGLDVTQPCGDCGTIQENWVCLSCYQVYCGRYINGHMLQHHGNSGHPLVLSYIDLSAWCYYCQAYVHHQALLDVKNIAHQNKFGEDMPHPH
The assay can be described thus: Inhibition of human HDAC6 using RHKKAc peptide as substrate.

The species entered for assay [6] is Homo sapiens. The assay can be described thus: Selectivity index, ratio of IC50 for human HDAC1 to IC50 for human HDAC6.
Another assay deals with Histone deacetylase 2 (Homo sapiens, UniProt Q92769). The assay can be described thus: Inhibition of human HDAC2 using RHKKAc peptide as substrate.
Chain of Histone deacetylase 2 (Q92769 whole entry): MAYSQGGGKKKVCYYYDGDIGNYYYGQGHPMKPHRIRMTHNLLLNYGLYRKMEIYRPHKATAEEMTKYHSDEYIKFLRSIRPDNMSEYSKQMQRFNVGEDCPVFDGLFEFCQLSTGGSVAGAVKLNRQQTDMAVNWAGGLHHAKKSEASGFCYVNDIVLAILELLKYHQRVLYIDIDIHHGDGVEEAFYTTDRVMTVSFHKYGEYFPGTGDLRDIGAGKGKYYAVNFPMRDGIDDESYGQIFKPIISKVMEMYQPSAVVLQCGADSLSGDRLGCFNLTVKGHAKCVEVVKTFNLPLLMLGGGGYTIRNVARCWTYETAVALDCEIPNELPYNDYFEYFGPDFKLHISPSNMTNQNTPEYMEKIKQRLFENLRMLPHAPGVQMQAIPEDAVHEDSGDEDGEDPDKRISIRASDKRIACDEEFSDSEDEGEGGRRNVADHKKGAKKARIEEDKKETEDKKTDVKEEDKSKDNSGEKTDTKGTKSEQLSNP
The species named for assay [7] is Homo sapiens. The assay can be described thus: Selectivity index, ratio of IC50 for human HDAC10 to IC50 for human HDAC6.

Chain of Histone deacetylase 3 (O15379 whole entry): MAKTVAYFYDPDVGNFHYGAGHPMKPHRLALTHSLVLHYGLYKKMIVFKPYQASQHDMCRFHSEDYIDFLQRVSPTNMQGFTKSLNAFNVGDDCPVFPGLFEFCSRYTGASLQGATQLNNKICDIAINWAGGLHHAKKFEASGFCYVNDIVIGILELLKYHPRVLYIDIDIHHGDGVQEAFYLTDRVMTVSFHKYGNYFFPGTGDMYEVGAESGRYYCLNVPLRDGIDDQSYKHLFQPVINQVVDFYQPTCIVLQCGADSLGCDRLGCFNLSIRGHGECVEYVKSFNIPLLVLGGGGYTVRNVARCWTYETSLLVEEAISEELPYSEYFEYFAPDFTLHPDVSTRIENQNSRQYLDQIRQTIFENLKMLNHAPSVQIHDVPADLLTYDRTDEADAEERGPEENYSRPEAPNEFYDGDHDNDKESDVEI

`COc1ccc(C(=O)c2ccc3c(ccn3Cc3ccc(C(=O)NO)cc3)c2)cc1`: the half-maximal inhibitory concentration (IC50) on Histone deacetylase 3 amounted to 4.15 µM; at Histone deacetylase 1, 2.19 µM; in assay [1], 59.8 µM; in [5], 0.00392 µM; against Histone deacetylase 2, 0.568 µM. Besides, the Ratio IC50 in the assay listed under Homo sapiens [2] is 145; in the assay listed under Homo sapiens [3], 165; in the assay filed under Homo sapiens [4] it was 1060; in the assay listed under Homo sapiens [6], 559; in the assay filed under Homo sapiens [7], 15300.
Take `O=C(NO)c1ccc(Cn2ccc3cc(C(=O)c4ccc(Cl)cc4)ccc32)cc1`: the IC50 at Histone deacetylase 3 was 6.62 µM; on Histone deacetylase 1 it was 4.78 µM; in assay [1], above 100 µM; in [5], 0.00673 µM; at Histone deacetylase 2 it was 2.1 µM. Moreover, the Ratio IC50 is 312 in the assay filed under Homo sapiens [2]; 158 in the assay filed under Homo sapiens [3]; 984 in the assay filed under Homo sapiens [4]; 710 in the assay filed under Homo sapiens [6]; above 14900 in the assay filed under Homo sapiens [7].
As to `O=C(NO)c1ccc(Cn2ccc3cc(C(=O)c4ccc(F)cc4)ccc32)cc1`, the IC50 on Histone deacetylase 3 was 4.4 µM; on Histone deacetylase 1, 3.3 µM; in assay [1], above 100 µM; in assay [5], 0.00925 µM; against Histone deacetylase 2, 5.11 µM. The Ratio IC50 in the assay listed under Homo sapiens [2] was 552; in the assay listed under Homo sapiens [3] it was 134; in the assay filed under Homo sapiens [4] it was 476; in the assay filed under Homo sapiens [6], 357; in the assay filed under Homo sapiens [7], above 10800.
